Measured values published in patent US8865750B2, “Small molecule inhibitors of RGS proteins” (The Regents of The University of Michigan, priority 2011, dated 2014).
Where two headings read alike, the source gives them in different places.

Tests used:
RGS4 = assay: FCPIA: Gαo binding to RGS4; settings: for RGS4 Hill Slope: Table 3; for IC50: read-out: RGS4 IC50
Description: (§1) FCPIA Dose Response and Reversibility Experiments:

RGS8 = RGS8 (Homo sapiens (Human), UniProt P57771); assay: FCPIA: Gαo binding to RGS8; settings: for RGS8 Hill Slope: Table 3; for IC50: read-out: RGS8 IC50
Description: as §1

HEK293 cells = assay: Calcium mobilization induced by compound alone; format: cell-based; settings: Homo sapiens, HEK293; read-out: Calcium transient (% 50014);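 note: percent of response to 10 µM reference CCG-50014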
Experimental: Calcium Mobilization Experiments:
A stable cell line was developed based upon the HEK-293 Flp-In TREx cell line (Invitrogen, Carlsbad, Calif.) that stably express the muscarinic M3 receptor and have human RGS4 expression under doxycycline control. Cells were maintained in DMEM supplemented with 10% fetal bovine serum and Penicillin (100 units/ml)-Streptomycin (100 μg/ml) under 5% CO2 at 37° C. For experiments, cells were split into 96-well black, clear bottom, poly-D-lysine coated microtiter plates (Nunc, Cat. #152037) at a density of 20,000 cells/well in DMEM containing 10% fetal bovine serum and Penicillin (100 units/ml), Streptomycin (100 μg/ml). RGS4 expression was induced by supplementing the medium with 1 μg/mL doxycycline for 24-48 hours before experimentation. Cells were loaded with Fluo-4 No Wash dye in buffer for 30 minutes at 37° C. Compounds and/or carbachol were added to the wells and the fluorescence intensity was measured using a FlexStation (Molecular Devices, Sunnyvale, Calif.) plate reader. Data analysis was performed by calculating the area under the curve or maximal fluorescence intensity from a 120 second kinetic measurement.

[1] = Table 3, duplex FCPIA, average of two experiments

Chain of RGS8 (P57771 other isoform, or with tags, fused parts or gaps): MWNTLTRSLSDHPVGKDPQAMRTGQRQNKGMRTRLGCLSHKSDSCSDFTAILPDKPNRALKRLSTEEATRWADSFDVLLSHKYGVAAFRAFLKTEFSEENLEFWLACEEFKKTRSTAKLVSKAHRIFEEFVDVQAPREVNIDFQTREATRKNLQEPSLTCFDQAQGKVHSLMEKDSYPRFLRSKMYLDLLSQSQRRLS

SMILES | RGS4 Hill Slope (RGS4) | IC50 (RGS4; Table 6, FCPIA) | RGS8 Hill Slope (RGS8) | IC50 (RGS8; Table 6, FCPIA) | Emax at 10 µM (HEK293 cells) | IC50 (RGS8; [1]) | IC50 (RGS4; [1])
Cc1ccc(-n2sc(=O)n(Cc3ccc(Cl)cc3)c2=O)cc1 [CCG-203731, 2-p-tolyl-4-(4-chlorobenzyl)-1,2,4-thiadiazolidine-3,5-dione] | −0.70 | 0.0054 µM | −1.50 | 11.8 µM | -2.6% |  | 
COc1ccc(-n2sc(=O)n(Cc3ccc(Cl)c(Cl)c3)c2=O)cc1 [S31, 2-(4-methoxyphenyl)-4-(3,4-dichlorobenzyl)-1,2,4-thiadiazolidine-3,5-dione] | −0.86 |  | −0.64 | 5.9 µM | 202% | 5.9 µM | 
Cc1ccc(Cn2c(=O)sn(-c3ccc(Cl)c(Cl)c3)c2=O)cc1 [S!2, 2-(3,4-dichlorophenyl)-4-(4-methylbenzyl)-1,2,4-thiadiazolidine-3,5-dione] |  |  |  | 175 µM |  |  | 
Cc1ccc(-n2sc(=O)n(C)c2=O)cc1 [CCG-203759, 2-p-tolyl-4-methyl-1,2,4-thiadiazolidine-3,5-dione] | −1.56 |  | −1.06 | 8.4 µM | 238% |  | 0.019 µM
Cc1cccc(Cn2c(=O)sn(-c3ccccc3)c2=O)c1 [S19, 2-phenyl-4-(3-methylbenzyl)-1,2,4-thiadiazolidine-3,5-dione] | −1.65 |  | −1.17 | 8.4 µM | 243% | 8.4 µM | 
Cc1ccc(Cn2c(=O)sn(-c3ccc(Cl)cc3)c2=O)cc1 [S10, 2-(4-chlorophenyl)-4-(4-methylbenzyl)-1,2,4-thiadiazolidine-3,5-dione] | −1.59 |  | −1.17 | 12.8 µM | 20% | 12.8 µM | 
O=c1sn(-c2ccc(Cl)cc2)c(=O)n1Cc1ccc(Cl)c(Cl)c1 [S30, 2-(4-chlorophenyl)-4-(3,4-dichlorobenzyl)-1,2,4-thiadiazolidine-3,5-dione] | −1.31 |  | −0.76 | 16.7 µM | -0.1% | 16.7 µM | 
Cc1ccc(Cn2sc(=O)n(Cc3ccc(C)cc3)c2=O)cc1 [S13, 2,4-bis(4-methylbenzyl)-1,2,4-thiadiazolidine-3,5-dione] | −0.92 |  | −0.51 | 94.7 µM | 251% | 94.7 µM | 
COc1ccc(-n2sc(=O)n(Cc3ccccc3)c2=O)cc1 [CCG-203746, 2-(4-methoxyphenyl)-4-benzyl-1,2,4-thiadiazolidine-3,5-dione] | −1.45 |  | −1.00 |  | 74.6% | 12.3 µM | 0.024 µM
CCCCn1sc(=O)n(CCCC)c1=O [CCG-203770, 2,4-dibutyl-1,2,4-thiadiazolidine-3,5-dione] | −0.83 |  | −0.53 |  | 188% | 122 µM | 0.03 µM
Cc1ccc(Cn2c(=O)sn(-c3ccccc3)c2=O)cc1 [S9, 2-phenyl-4-(4-methylbenzyl)-1,2,4-thiadiazolidine-3,5-dione] | −1.50 |  | −0.87 | 8.3 µM | 12.2% | 8.3 µM | 
O=c1sn(-c2ccccc2)c(=O)n1Cc1ccc(Cl)c(Cl)c1 [S29, 2-phenyl-4-(3,4-dichlorobenzyl)-1,2,4-thiadiazolidine-3,5-dione] | −0.96 |  | −0.80 | 7.5 µM | 47.6% | 7.5 µM | 
O=c1sn(-c2ccc(Cl)c(Cl)c2)c(=O)n1Cc1ccc(Cl)cc1 [S7, 2-(3,4-dichlorophenyl)-4-(4-chlorobenzyl)-1,2,4-thiadiazolidine-3,5-dione] |  |  |  | 43.2 µM |  |  | 
COc1ccc(Cn2c(=O)sn(-c3ccc(Cl)cc3)c2=O)cc1 [S25, 2-(4-chlorophenyl)-4-(4-methoxybenzyl)-1,2,4-thiadiazolidine-3,5-dione] | −3.26 |  | −0.73 | 9.9 µM | 84.6% | 9.9 µM | 
Cc1cccc(Cn2c(=O)sn(-c3cccc(Cl)c3)c2=O)c1 [S22, 2-(3-chlorophenyl)-4-(3-methylbenzyl)-1,2,4-thiadiazolidine-3,5-dione] |  |  |  | 31 µM |  |  | 
O=c1sn(-c2ccc(Cl)c(Cl)c2)c(=O)n1Cc1ccc(F)cc1 [CCG-203728, 2-(3,4-dichlorophenyl)-4-(4-fluorobenzyl)-1,2,4-thiadiazolidine-3,5-dione] | −1.15 |  | −1.78 |  | 128% | 17.2 µM | 0.036 µM
O=c1sn(-c2ccc(Cl)cc2)c(=O)n1Cc1ccccc1 [CCG-203723, 2-(4-chlorophenyl)-4-benzyl-1,2,4-thiazolidine-3,5-dione] | −1.99 |  | −0.80 |  | 120% | 5.2 µM | 0.029 µM
